Source: patent US20230035057A1, “METHOD OF TREATMENT OF SLEEP APNEA” (PRIMAVERA BIOSCIENCES, INC., priority 2021, published 2023)

System: sleep apnea patient
Experiment: Oxygen saturation (SpO2) monitoring during sleep with Wellure's O2Ring in a sleep apnea patient
Format: in vivo
Description: FIG. 1 is a diagram showing sleep apnea patient's oxygen saturation levels (SpO2). Oxygen saturation levels (SpO2) in the blood during sleep were monitored using Wellure's O2Ring.
(§1) Oxygen saturation levels (SpO2) in the blood during sleep were monitored using Wellure's O2Ring.
as §1

With CN[C@@H](C)[C@H](O)c1ccccc1 [ephedrine] the “breathing problems observed in FIG. 1” value (FIG. 2, 25 mg ephedrine one hour before bed plus Avinol PM, in the first three hours, came back afterwards) was “greatly reduced”, the “sleep apnea patient's oxygen saturation levels (SpO2)” value (FIG. 2, 25 mg of ephedrine one hour before going to bed along with sleeping pill Avinol PM just before going to bed) was “improved” and the “sleep apnea patient's oxygen saturation levels (SpO2)” value (FIG. 3, 25 mg ephedrine one hour before bed plus one tablet Avinol PM just before bed, another 25 mg ephedrine three hours after going to bed) was “improved”. For the same compound, the “breathing problems caused by sleep apnea” value (general statement, dose not given) was “reduces”.
